What was measured:
NCI-H23 = assay: Growth inhibition of human NCI-H23 cells at 10 uM incubated for 48 hrs by sulforhodamine B assay relative to control; format: functional; details: NCI-H23, 48 h, values are per cent of control
HT-29 = assay: Growth of human HT-29 cells at 10 uM incubated for 48 hrs by sulforhodamine B assay relative to control; details: HT-29, 48 h
K562 = assay: Growth of human K562 cells at 10 uM incubated for 48 hrs by sulforhodamine B assay relative to control; details: K562, 48 h
UO-31 = assay: Growth inhibition of human UO31 cells at 10 uM incubated for 48 hrs by sulforhodamine B assay relative to control; format: functional; details: UO-31, 48 h, values are per cent of control
SF-295 = assay: Growth of human SF295 cells at 10 uM incubated for 48 hrs by sulforhodamine B assay relative to control; details: SF-295, 48 h
OVCAR-3 = assay: Growth of human OVCAR3 cells at 10 uM incubated for 48 hrs by sulforhodamine B assay relative to control; details: OVCAR-3, 48 h
IGROV-1 = assay: Growth of human IGROV1 cells at 10 uM incubated for 48 hrs by sulforhodamine B assay relative to control; details: IGROV-1, 48 h
SF-268 = assay: Growth of human SF268 cells at 10 uM incubated for 48 hrs by sulforhodamine B assay relative to control; details: SF-268, 48 h
A549 = assay: Growth of human A549/ATCC cells at 10 uM incubated for 48 hrs by sulforhodamine B assay relative to control; details: A549, 48 h
HCT-15 = assay: Growth of human HCT15 cells at 10 uM incubated for 48 hrs by sulforhodamine B assay relative to control; details: HCT-15, 48 h
COLO 205 = assay: Growth of human COLO205 cells at 10 uM incubated for 48 hrs by sulforhodamine B assay relative to control; details: COLO 205, 48 h
ACHN = assay: Growth inhibition of human ACHN cells at 10 uM incubated for 48 hrs by sulforhodamine B assay relative to control; format: functional; details: values are per cent of control
M14 = assay: Growth of human M14 cells at 10 uM incubated for 48 hrs by sulforhodamine B assay relative to control; details: M14, 48 h
HOP-92 = assay: Growth inhibition of human HOP92 cells at 10 uM incubated for 48 hrs by sulforhodamine B assay relative to control; format: functional; details: HOP-92, 48 h, values are per cent of control
MDA-MB-468 = assay: Growth inhibition of human MDA-MB-468 cells at 10 uM incubated for 48 hrs by sulforhodamine B assay relative to control; format: functional; details: MDA-MB-468, 48 h, values are per cent of control
SW-620 = assay: Growth of human SW620 cells at 10 uM incubated for 48 hrs by sulforhodamine B assay relative to control; details: SW-620, 48 h
SK-MEL-28 = assay: Growth of human SK-MEL-28 cells at 10 uM incubated for 48 hrs by sulforhodamine B assay relative to control; details: SK-MEL-28, 48 h
MOLT-4 = assay: Growth of human MOLT4 cells at 10 uM incubated for 48 hrs by sulforhodamine B assay relative to control; details: MOLT-4, 48 h
SN12C = assay: Growth inhibition of human SN12C cells at 10 uM incubated for 48 hrs by sulforhodamine B assay relative to control; format: functional; details: values are per cent of control
OVCAR-5 = assay: Growth of human OVCAR5 cells at 10 uM incubated for 48 hrs by sulforhodamine B assay relative to control; details: OVCAR-5, 48 h
BT-549 = assay: Growth inhibition of human BT549 cells at 10 uM incubated for 48 hrs by sulforhodamine B assay relative to control; format: functional; details: BT-549, 48 h, values are per cent of control
SR = assay: Growth of human SR cells at 10 uM incubated for 48 hrs by sulforhodamine B assay relative to control
DU-145 = assay: Growth inhibition of human DU145 cells at 10 uM incubated for 48 hrs by sulforhodamine B assay relative to control; format: functional; details: DU-145, 48 h, values are per cent of control
NCI-H522 = assay: Growth of human NCI-H522 cells at 10 uM incubated for 48 hrs by sulforhodamine B assay relative to control; details: NCI-H522, 48 h
TK-10 = assay: Growth inhibition of human TK10 cells at 10 uM incubated for 48 hrs by sulforhodamine B assay relative to control; format: functional; details: TK-10, 48 h, values are per cent of control
MDA-MB-231 = assay: Growth inhibition of human MDA-MB-231 cells at 10 uM incubated for 48 hrs by sulforhodamine B assay relative to control; format: functional; details: MDA-MB-231, 48 h, values are per cent of control

Row | SMILES | growth, % of control at 10 µM (NCI-H23) | growth, % of control at 10 µM (HT-29) | growth, % of control at 10 µM (K562) | growth, % of control at 10 µM (UO-31) | growth, % of control at 10 µM (SF-295) | growth, % of control at 10 µM (OVCAR-3) | growth, % of control at 10 µM (IGROV-1) | growth, % of control at 10 µM (SF-268) | growth, % of control at 10 µM (A549) | growth, % of control at 10 µM (HCT-15) | growth, % of control at 10 µM (COLO 205) | growth, % of control at 10 µM (ACHN) | growth, % of control at 10 µM (M14) | growth, % of control at 10 µM (HOP-92) | growth, % of control at 10 µM (MDA-MB-468) | growth, % of control at 10 µM (SW-620) | growth, % of control at 10 µM (SK-MEL-28) | growth, % of control at 10 µM (MOLT-4) | growth, % of control at 10 µM (SN12C) | growth, % of control at 10 µM (OVCAR-5) | further results
1 | CC(C)(C)S/C(Nc1ccccc1)=C(\C#N)C(=O)N/N=C\c1ccc(Cl)cc1Cl | 92.5% | 92.6% | 91.8% | 82.7% | 97.9% | 98.6% | 98.7% | 99.7% | 98.1% | 102% | 112% | 105% | 98.5% | 94.1% | 98.9% | 105% | 108% | 86.2% | 101% | 106% | growth, % of control at 10 µM (BT-549): 97%; growth, % of control at 10 µM (SR): 70%; growth, % of control at 10 µM (DU-145): 113%; growth, % of control at 10 µM (NCI-H522): 82.7%; growth, % of control at 10 µM (TK-10): 99.1%; growth, % of control at 10 µM (MDA-MB-231): 96.8%
2 | CCS/C(Nc1ccccc1)=C(\C#N)C(=O)Nc1ccccc1 | 94.3% | 88.2% | 89.9% | 76% | 91.3% | 88.9% | 105% | 91.2% | 86.2% | 93.7% | 113% | 102% | 128% | 53% | 90.7% | 103% | 112% | 69.2% | 94% | 96.5% | growth, % of control at 10 µM (BT-549): 103%; growth, % of control at 10 µM (SR): 70.3%; growth, % of control at 10 µM (DU-145): 102%; growth, % of control at 10 µM (NCI-H522): 65.7%; growth, % of control at 10 µM (TK-10): 76.7%; growth, % of control at 10 µM (MDA-MB-231): 94.2%
3 | CCS/C(Nc1ccccc1)=C(\C#N)C(=O)Nc1ccc(C)cc1 | 94% | 89% | 80.1% | 75.3% | 95.7% | 97.9% | 99% | 86.8% | 84.5% | 94.8% | 117% | 96.8% | 112% | 62.3% | 103% | 101% | 109% | 56.6% | 94.3% | 101% | growth, % of control at 10 µM (BT-549): 103%; growth, % of control at 10 µM (SR): 64.2%; growth, % of control at 10 µM (DU-145): 95.2%; growth, % of control at 10 µM (NCI-H522): 71.2%; growth, % of control at 10 µM (TK-10): 81.7%; growth, % of control at 10 µM (MDA-MB-231): 98.9%
4 | CCS/C(Nc1ccccc1)=C(\C#N)C(=O)N/N=C\c1ccco1 | 96.5% | 94.7% | 97.8% | 86.8% | 101% | 104% | 105% | 98% | 86.7% | 106% | 103% | 105% | 99.2% | 94.7% | 91.4% | 103% | 109% | 76.3% | 97.7% | 106% | growth, % of control at 10 µM (BT-549): 109%; growth, % of control at 10 µM (SR): 85.1%; growth, % of control at 10 µM (DU-145): 106%; growth, % of control at 10 µM (NCI-H522): 75.7%; growth, % of control at 10 µM (TK-10): 103%; growth, % of control at 10 µM (MDA-MB-231): 96.2%
5 | CC(C)(C)S/C(Nc1ccccc1)=C(\C#N)C(=O)N/N=C\c1ccco1 | 99% | 87.2% | 100% | 90.2% | 102% | 106% | 106% | 99.7% | 79.6% | 99.2% | 102% | 98% | 105% | 82.3% | 95.8% | 94.4% | 106% | 88.6% | 103% | 101% | growth, % of control at 10 µM (BT-549): 103%; growth, % of control at 10 µM (SR): 76.5%; growth, % of control at 10 µM (DU-145): 109%; growth, % of control at 10 µM (NCI-H522): 71.1%; growth, % of control at 10 µM (TK-10): 103%; growth, % of control at 10 µM (MDA-MB-231): 99.6%
6 | CC(C)(C)S/C(Nc1ccccc1)=C(\C#N)C(=O)Nc1ccccc1 | 99.8% | 94.6% | 95.9% | 86.1% | 94.4% | 108% | 108% | 86.3% | 88.4% | 101% | 102% | 103% | 100% | 91.4% | 92.8% | 103% | 105% | 69.7% | 98.4% | 100% | growth, % of control at 10 µM (BT-549): 99.4%; growth, % of control at 10 µM (SR): 82.3%; growth, % of control at 10 µM (DU-145): 107%; growth, % of control at 10 µM (NCI-H522): 80.3%; growth, % of control at 10 µM (TK-10): 90.9%; growth, % of control at 10 µM (MDA-MB-231): 98.5%

— ChEMBL document CHEMBL4145553, “Design, synthesis, and biological evaluation of novel amide and hydrazide based thioether analogs targeting Histone deacteylase (HDAC) enzymes” (Eur J Med Chem, 2018)
